Laboratory results: patent US20230085307A1, “PYRIDAZINONE COMPOUND AND HERBICIDE” (NISSAN CHEMICAL CORPORATION, priority 2019, published 2023)

How the values were obtained:
[1] = system: late watergrass; assay: Test Example 2: herbicidal activity, application during weed generation under submerged conditions (Table 17, symbol A); format: in vivo, late watergrass (Echinochloa oryzicola); conditions: AAH 320 g/ha; application during weed generation, submerged conditions
How it was run: (§1)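 Mixed weed seedlings in alluvial soil under a 4 cm water layer, greenhouse-grown at 25–30° C. Compound given as a diluted emulsion into the floodwater at the 1–2 leaf stage; response graded after three weeks.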

[2] = system: Japanese bulrush; assay: Test Example 2: herbicidal activity, application during weed generation under submerged conditions (Table 17, symbol B); format: in vivo, Japanese bulrush (Schoenoplectus juncoides); conditions: AAH 320 g/ha; application during weed generation, submerged conditions
How it was run: as §1

[3] = system: oval-leafed pondweed; assay: Test Example 2: herbicidal activity, application during weed generation under submerged conditions (Table 17, symbol C); format: in vivo, oval-leafed pondweed (Monochoria vaginalis); conditions: AAH 320 g/ha; application during weed generation, submerged conditions
How it was run: as §1

[4] = system: barnyard grass; assay: Test Example 3: herbicidal effect by foliage application, Wagner pot (Table 18, symbol H); format: in vivo, barnyard grass (Echinochloa crus-galli); conditions: 320 g/ha
How it was run: (§2)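 Plants were sown in alluvial soil held under 0.1–0.5 cm standing water and grown 14 days in a greenhouse at 25–30 °C. An emulsifiable formulation, water-diluted to the set dose, was then sprayed onto the foliage, and effects were scored three weeks later using previously defined criteria.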

[5] = system: Chinese sprangletop; assay: Test Example 3: herbicidal effect by foliage application, Wagner pot (Table 18, symbol D); format: in vivo, chinese sprangletop (Leptochloa chinensis); conditions: 320 g/ha
How it was run: as §2

[6] = system: rice flat sedge; assay: Test Example 3: herbicidal effect by foliage application, Wagner pot (Table 18, symbol E); format: in vivo, rice flat sedge (Cyperus iria); conditions: 320 g/ha
How it was run: as §2

[7] = system: southern crabgrass; assay: Test Example 4: herbicidal effect by soil treatment (Table 19, symbol F); format: in vivo, southern crabgrass (Digitaria ciliaris); conditions: amount of applied herbicide 320 g/ha
How it was run: (§3)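 Scoring uses the grading scale of an earlier test, three weeks post-application. Treatment consists of spraying a diluted emulsion formulation across the surface of sterilized diluvial soil in which seeds are buried near 1.5 cm deep; boxes are kept in a greenhouse between 25° C. and 30° C.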

[8] = system: green foxtail; assay: Test Example 4: herbicidal effect by soil treatment (Table 19, symbol G); format: in vivo, green foxtail (Setaria viridis); conditions: amount of applied herbicide 320 g/ha
How it was run: as §3

[9] = system: barnyard grass; assay: Test Example 4: herbicidal effect by soil treatment (Table 19, symbol H); format: in vivo, barnyard grass (Echinochloa crus-galli); conditions: amount of applied herbicide 320 g/ha
How it was run: as §3

[10] = system: wild oat; assay: Test Example 4: herbicidal effect by soil treatment (Table 19, symbol I); format: in vivo, wild oat (Avena fatua); conditions: amount of applied herbicide 320 g/ha
How it was run: as §3

[11] = system: blackgrass; assay: Test Example 4: herbicidal effect by soil treatment (Table 19, symbol J); format: in vivo, blackgrass (Alopecurus myosuroides); conditions: amount of applied herbicide 320 g/ha
How it was run: as §3

[12] = system: Italian ryegrass; assay: Test Example 4: herbicidal effect by soil treatment (Table 19, symbol K); format: in vivo, Italian ryegrass (Lolium multiflorum); conditions: amount of applied herbicide 320 g/ha
How it was run: as §3

[13] = system: windgrass; assay: Test Example 4: herbicidal effect by soil treatment (Table 19, symbol L); format: in vivo, windgrass (Apera spica-venti); conditions: amount of applied herbicide 320 g/ha
How it was run: as §3

[14] = system: velvetleaf; assay: Test Example 4: herbicidal effect by soil treatment (Table 19, symbol M); format: in vivo, velvetleaf (Abutilon theophrasti); conditions: amount of applied herbicide 320 g/ha
How it was run: as §3

[15] = system: redroot pigweed; assay: Test Example 4: herbicidal effect by soil treatment (Table 19, symbol N); format: in vivo, redroot pigweed (Amaranthus retroflexus); conditions: amount of applied herbicide 320 g/ha
How it was run: as §3

[16] = system: lambsquarters; assay: Test Example 4: herbicidal effect by soil treatment (Table 19, symbol O); format: in vivo, lambsquarters (Chenopodium album); conditions: amount of applied herbicide 320 g/ha
How it was run: as §3

[17] = system: chickweed; assay: Test Example 4: herbicidal effect by soil treatment (Table 19, symbol P); format: in vivo, common chickweed (Stellaria media); conditions: amount of applied herbicide 320 g/ha
How it was run: as §3

[18] = system: false cleavers; assay: Test Example 4: herbicidal effect by soil treatment (Table 19, symbol Q); format: in vivo, false cleavers (Galium spurium); conditions: amount of applied herbicide 320 g/ha
How it was run: as §3

[19] = system: persian speedwell; assay: Test Example 4: herbicidal effect by soil treatment (Table 19, symbol R); format: in vivo, Persian speedwell (Veronica persica); conditions: amount of applied herbicide 320 g/ha
How it was run: as §3

[20] = system: southern crabgrass; assay: Test Example 5: herbicidal effect by foliage application, plastic box (Table 20, symbol F); format: in vivo, southern crabgrass (Digitaria ciliaris); conditions: foliage application, 320 g/ha, three weeks after application
How it was run: (§4)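 Post-emergence foliar test in sterilized diluvial soil. Compound applied as water-diluted emulsion at a predetermined rate to 14-day-old plants; evaluation at three weeks.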

[21] = system: green foxtail; assay: Test Example 5: herbicidal effect by foliage application, plastic box (Table 20, symbol G); format: in vivo, green foxtail (Setaria viridis); conditions: foliage application, 320 g/ha, three weeks after application
How it was run: as §4

[22] = system: barnyard grass; assay: Test Example 5: herbicidal effect by foliage application, plastic box (Table 20, symbol H); format: in vivo, barnyard grass (Echinochloa crus-galli); conditions: foliage application, 320 g/ha, three weeks after application
How it was run: as §4

[23] = system: wild oat; assay: Test Example 5: herbicidal effect by foliage application, plastic box (Table 20, symbol I); format: in vivo, wild oat (Avena fatua); conditions: foliage application, 320 g/ha, three weeks after application
How it was run: as §4

[24] = system: blackgrass; assay: Test Example 5: herbicidal effect by foliage application, plastic box (Table 20, symbol J); format: in vivo, blackgrass (Alopecurus myosuroides); conditions: foliage application, 320 g/ha, three weeks after application
How it was run: as §4

[25] = system: Italian ryegrass; assay: Test Example 5: herbicidal effect by foliage application, plastic box (Table 20, symbol K); format: in vivo, Italian ryegrass (Lolium multiflorum); conditions: foliage application, 320 g/ha, three weeks after application
How it was run: as §4

[26] = system: windgrass; assay: Test Example 5: herbicidal effect by foliage application, plastic box (Table 20, symbol L); format: in vivo, windgrass (Apera spica-venti); conditions: foliage application, 320 g/ha, three weeks after application
How it was run: as §4

[27] = system: velvetleaf; assay: Test Example 5: herbicidal effect by foliage application, plastic box (Table 20, symbol M); format: in vivo, velvetleaf (Abutilon theophrasti); conditions: foliage application, 320 g/ha, three weeks after application
How it was run: as §4

[28] = system: redroot pigweed; assay: Test Example 5: herbicidal effect by foliage application, plastic box (Table 20, symbol N); format: in vivo, redroot pigweed (Amaranthus retroflexus); conditions: foliage application, 320 g/ha, three weeks after application
How it was run: as §4

[29] = system: lambsquarters; assay: Test Example 5: herbicidal effect by foliage application, plastic box (Table 20, symbol O); format: in vivo, lambsquarters (Chenopodium album); conditions: foliage application, 320 g/ha, three weeks after application
How it was run: as §4

[30] = system: chickweed; assay: Test Example 5: herbicidal effect by foliage application, plastic box (Table 20, symbol P); format: in vivo, common chickweed (Stellaria media); conditions: foliage application, 320 g/ha, three weeks after application
How it was run: as §4

[31] = system: false cleavers; assay: Test Example 5: herbicidal effect by foliage application, plastic box (Table 20, symbol Q); format: in vivo, false cleavers (Galium spurium); conditions: foliage application, 320 g/ha, three weeks after application
How it was run: as §4

[32] = system: persian speedwell; assay: Test Example 5: herbicidal effect by foliage application, plastic box (Table 20, symbol R); format: in vivo, Persian speedwell (Veronica persica); conditions: foliage application, 320 g/ha, three weeks after application
How it was run: as §4

CCCC(=O)Oc1c(C)nn(C)c(=O)c1-c1c(-c2ccc3c(c2)OCO3)sc2ccccc12 [1-088]
herbicidal effect rating, A: late watergrass [1]: 1 (Herbicidal rate of 5% or more and less than 20%) | herbicidal effect rating, B: Japanese bulrush [2]: 3 (Herbicidal rate of 40% or more and less than 70%) | herbicidal effect rating, C: oval-leafed pondweed [3]: 4 (Herbicidal rate of 70% or more and less than 90%) | herbicidal effect on H (barnyard grass), rating 0-5 [4]: 5 (Herbicidal rate of 90% or more (almost completely withered)) | herbicidal effect on D (Chinese sprangletop), rating 0-5 [5]: 3 (Herbicidal rate of 40% or more and less than 70%) | herbicidal effect on E (rice flat sedge), rating 0-5 [6]: 5 (Herbicidal rate of 90% or more (almost completely withered)) | herbicidal effect rating, F: southern crabgrass [7]: 3 (Herbicidal rate of 40% or more and less than 70%) | herbicidal effect rating, G: green foxtail [8]: 4 (Herbicidal rate of 70% or more and less than 90%) | herbicidal effect rating, H: barnyard grass [9]: 4 (Herbicidal rate of 70% or more and less than 90%) | herbicidal effect rating, I: wild oat [10]: 0 (Herbicidal rate of 5% or less (almost no effect)) | herbicidal effect rating, J: blackgrass [11]: 0 (Herbicidal rate of 5% or less (almost no effect)) | herbicidal effect rating, K: Italian ryegrass [12]: 1 (Herbicidal rate of 5% or more and less than 20%) | herbicidal effect rating, L: windgrass [13]: 0 (Herbicidal rate of 5% or less (almost no effect)) | herbicidal effect rating, M: velvetleaf [14]: 0 (Herbicidal rate of 5% or less (almost no effect)) | herbicidal effect rating, N: redroot pigweed [15]: 0 (Herbicidal rate of 5% or less (almost no effect)) | herbicidal effect rating, O: lambsquarters [16]: 3 (Herbicidal rate of 40% or more and less than 70%) | herbicidal effect rating, P: chickweed [17]: 4 (Herbicidal rate of 70% or more and less than 90%) | herbicidal effect rating, Q: false cleavers [18]: 0 (Herbicidal rate of 5% or less (almost no effect)) | herbicidal effect rating, R: persian speedwell [19]: 5 (Herbicidal rate of 90% or more (almost completely withered)) | herbicidal effect grade, F: southern crabgrass [20]: 3 (Herbicidal rate of 40% or more and less than 70%) | herbicidal effect grade, G: green foxtail [21]: 4 (Herbicidal rate of 70% or more and less than 90%) | herbicidal effect grade, H: barnyard grass [22]: 3 (Herbicidal rate of 40% or more and less than 70%) | herbicidal effect grade, I: wild oat [23]: 0 (Herbicidal rate of 5% or less (almost no effect)) | herbicidal effect grade, J: blackgrass [24]: 0 (Herbicidal rate of 5% or less (almost no effect)) | herbicidal effect grade, K: Italian ryegrass [25]: 3 (Herbicidal rate of 40% or more and less than 70%) | herbicidal effect grade, L: windgrass [26]: 0 (Herbicidal rate of 5% or less (almost no effect)) | herbicidal effect grade, M: velvetleaf [27]: 5 (Herbicidal rate of 90% or more (almost completely withered)) | herbicidal effect grade, N: redroot pigweed [28]: 3 (Herbicidal rate of 40% or more and less than 70%) | herbicidal effect grade, O: lambsquarters [29]: 3 (Herbicidal rate of 40% or more and less than 70%) | herbicidal effect grade, P: chickweed [30]: 5 (Herbicidal rate of 90% or more (almost completely withered)) | herbicidal effect grade, Q: false cleavers [31]: 0 (Herbicidal rate of 5% or less (almost no effect)) | herbicidal effect grade, R: persian speedwell [32]: 5 (Herbicidal rate of 90% or more (almost completely withered))
